Where two headings read alike, the source gives them in different places.
Target: T1, SCD-1 (Homo sapiens, UniProt O00767)
T1 construct: 50 μg of protein from a HepG2 cell P2 pellet; endogenous in cells; host or cells: HepG2 cells (P2 pellet)
T1 sequence (O00767 1-359): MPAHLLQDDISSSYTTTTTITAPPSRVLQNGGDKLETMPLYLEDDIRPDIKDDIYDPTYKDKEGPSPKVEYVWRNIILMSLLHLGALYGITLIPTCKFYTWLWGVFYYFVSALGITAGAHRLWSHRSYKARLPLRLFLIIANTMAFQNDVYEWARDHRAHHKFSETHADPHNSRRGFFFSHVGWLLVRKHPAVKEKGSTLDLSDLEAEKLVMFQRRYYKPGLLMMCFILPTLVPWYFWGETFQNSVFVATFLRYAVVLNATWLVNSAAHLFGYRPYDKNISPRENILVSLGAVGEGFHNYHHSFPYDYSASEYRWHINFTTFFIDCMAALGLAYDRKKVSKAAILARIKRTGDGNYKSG
Assay: Stearoyl-CoA desaturase assay (HepG2 cell P2 pellet)
Format: biochemical
Conditions: protein from HepG2 cell P2 pellet, 20 μM stearoyl-CoA, 15 min at 25° C., read-out: Ave IC50
Description: Stearoyl-CoA desaturase assays were performed in according to Talamo and Bloch. […] Assays were run in triplicate in 100-μl volumes of 100 mM TrisHCl, pH 7.3, containing 20 μM stearoyl-CoA, 2 mM β-NADH, and 50 μg of protein from a HepG2 cell P2 pellet. Since SCD-1 is the only isoform of SCD expressed in these cells, the assay is specific for SCD-1 with these cells as the source of enzyme. Reaction mixtures were incubated fifteen minutes at 25° C. and reactions were then stopped with a volume of trichloroacetic acid giving a final concentration of 0.2%. After five minutes, a 90-μl volume was transferred to a Millipore Multiscreen HTS 96-well filtration plate (MSHVN4B50) containing 125 μl of 10% charcoal in each well, to which vacuum had been previously applied. Plates were shaken fifteen minutes and then filtered into a collection plate. Fifty-μI volumes of filtrate were transferred to another plate containing 150 μl of MicroScint 40 for counting on a TopCount scintillation counter.

[1] = Table 1, compounds of formula (Ia)
[2] = Table 2, compounds of formula (Ib)

Row | SMILES | IC50 [1] [µM] | IC50 [2] [µM]
1 | CCc1ccc(CN2CCC3(CCN(C(=O)[C@@H](C)NC(C)=O)CC3)Oc3ccccc32)cc1 [Compound 4] | 0.5 to 10 | –
2 | CCc1ccc(CN2CCC3(CCN(C(=O)CNC(=O)CCN(C)C)CC3)Oc3ccccc32)cc1 [Compound 9] | > 10 | –
3 | CC(=O)NCC(=O)N1CCC2(CC1)CCN(Cc1ccc(C(C)(C)C)cc1)c1cccc(Cl)c1O2 [Compound 15] | 0.5 to 10 | –
4 | CC(=O)NCC(=O)N1CCC2(CC1)CCN(Cc1ccc(OC(C)(C)C)cc1)c1ccccc1O2 [Compound 18] | > 10 | –
5 | CC(=O)NCC(=O)N1CCC2(CC1)CCN(Cc1ccc(C)s1)c1ccccc1O2 [Compound 20] | > 10 | –
6 | CC(=O)NCC(=O)N1CCC2(CC1)CCN(Cc1ccc(C#N)cc1)c1ccccc1O2 [Compound 23] | > 10 | –
7 | COc1ccccc1CN1CCC2(CCN(C(=O)CNC(C)=O)CC2)Oc2ccccc21 [Compound 24] | 0.5 to 10 | –
8 | COC(=O)c1cccc(CN2CCC3(CCN(C(=O)CNC(C)=O)CC3)Oc3ccccc32)c1 [Compound 25] | 0.5 to 10 | –
9 | CC(=O)NCC(=O)N1CCC2(CC1)CCN(Cc1cccc(Cl)c1)c1ccccc1O2 [Compound 26] | 0.5 to 10 | –
10 | CC(=O)NCC(=O)N1CCC2(CC1)CCN(Cc1ccc(F)cc1)c1ccccc1O2 [Compound 27] | 0.05 to 0.499 | –
11 | CC(=O)NCC(=O)N1CCC2(CC1)CCN(Cc1ccccc1Cl)c1ccccc1O2 [Compound 28] | 0.5 to 10 | –
12 | COc1ccc(CN2CCC3(CCN(C(=O)CNC(C)=O)CC3)Oc3ccccc32)cc1F [Compound 31] | 0.5 to 10 | –
13 | CC(=O)NCC(=O)N1CCC2(CC1)CCN(Cc1ccc(Cl)s1)c1ccccc1O2 [Compound 33] | 0.5 to 10 | –
14 | CC(=O)NCC(=O)N1CCC2(CC1)CCN(Cc1ccccc1Br)c1ccccc1O2 [Compound 37] | 0.5 to 10 | –
15 | COC(=O)c1cnc(N2CCC3(CC2)CCN(Cc2cccc(C(F)(F)F)c2)c2ccccc2O3)s1 [Compound 50, methyl 2-(5-(3-(trifluoromethyl)benzyl)-4,5-dihydro-3H-spiro[benzo[b][1,4]oxazepine-2,4′-piperidine]-1′-yl)thiazole-5-carboxylate] | – | 0.0005 to 0.049
16 | FC(F)(F)c1cccc(CN2CCC3(CCN(c4ncc(Br)s4)CC3)Oc3ccccc32)c1 [Compound 53] | – | 0.5 to 10
17 | O=C(c1cnc(N2CCC3(CC2)CCN(Cc2cccc(C(F)(F)F)c2)c2ccccc2O3)s1)N1CCCC1 [Compound 56] | – | 0.5 to 10
18 | O=C(NCc1ccccc1)c1cnc(N2CCC3(CC2)CCN(Cc2cccc(C(F)(F)F)c2)c2ccccc2O3)s1 [Compound 57] | – | 0.5 to 10
19 | CNC(=O)c1cnc(N2CCC3(CC2)CCN(Cc2cccc(C(F)(F)F)c2)c2ccccc2O3)s1 [Compound 58, N-methyl-2-(5-(3-(trifluoromethyl)benzyl)-4,5-dihydro-3H-spiro[benzo[b][1,4]oxazepine-2,4′-piperidine]-1′-yl)thiazole-5-carboxamide] | – | 0.0005 to 0.049
20 | CC(C)(C)OC(=O)CCNC(=O)c1cnc(N2CCC3(CC2)CCN(Cc2cccc(C(F)(F)F)c2)c2ccccc2O3)s1 [Compound 60] | – | 0.05 to 0.499

The remaining lines, values ahead:

Row | IC50 [1] [µM] | IC50 [2] [µM] | SMILES
21 | > 10 | – | CC(=O)NCC(=O)N1CCC2(CC1)CCN(Cc1cccc(C(F)(F)F)c1)c1ccccc1O2 [Compound 1, N-(2-oxo-2-(5-(3-(trifluoromethyl)benzyl)-4,5-dihydro-3H-spiro[benzo[b][1,4]oxazepine-2,4′-piperidine]-1′-yl)ethyl)acetamide]
22 | > 10 | – | CCc1ccc(CN2CCC3(CCN(C(=O)C(CO)NC(C)=O)CC3)Oc3ccccc32)cc1 (centres unmarked) [Compound 2]
23 | > 10 | – | CCc1ccc(CN2CCC3(CCN(C(=O)[C@H](C)NC(C)=O)CC3)Oc3ccccc32)cc1 [Compound 3]
24 | 0.5 to 10 | – | CCc1ccc(CN2CCC3(CCN(C(=O)CNC(=O)C4CC4)CC3)Oc3ccccc32)cc1 [Compound 5]
25 | 0.5 to 10 | – | CCc1ccc(CN2CCC3(CCN(C(=O)CNC(=O)C(C)C)CC3)Oc3ccccc32)cc1 [Compound 6]
26 | 0.05 to 0.499 | – | CCc1ccc(CN2CCC3(CCN(C(=O)CNC(=O)CC4CC4)CC3)Oc3ccccc32)cc1 [Compound 7]
27 | 0.5 to 10 | – | CCc1ccc(CN2CCC3(CCN(C(=O)CNC(=O)C[C@@H](C)O)CC3)Oc3ccccc32)cc1 [Compound 8]
28 | > 10 | – | CCc1ccc(CN2CCC3(CCN(C(=O)CNC(=O)Cc4ccccn4)CC3)Oc3ccccc32)cc1 [Compound 10]
29 | 0.5 to 10 | – | CCc1ccc(CN2CCC3(CCN(C(=O)CNC(=O)Cc4cn(C)cn4)CC3)Oc3ccccc32)cc1 [Compound 11]
30 | 0.5 to 10 | – | COc1ccc(CN2CCC3(CCN(C(=O)CNC(C)=O)CC3)Oc3ccccc32)cc1 [Compound 16]
31 | > 10 | – | CC(=O)NCC(=O)N1CCC2(CC1)CCN(Cc1ccc(Cl)cc1)c1ccccc1O2 [Compound 17]
32 | > 10 | – | CC(=O)NCC(=O)N1CCC2(CC1)CCN(Cc1ccccc1F)c1ccccc1O2 [Compound 19]
33 | 0.5 to 10 | – | CC(=O)NCC(=O)N1CCC2(CC1)CCN(Cc1ccc(C#N)cc1)c1ccccc1O2 [Compound 21]
34 | 0.5 to 10 | – | CC(=O)NCC(=O)N1CCC2(CC1)CCN(Cc1ccc(OC(F)(F)F)cc1)c1ccccc1O2 [Compound 22]
35 | 0.5 to 10 | – | CC(=O)NCC(=O)N1CCC2(CC1)CCN(Cc1cccc(F)c1)c1ccccc1O2 [Compound 29]
36 | 0.5 to 10 | – | CC(=O)NCC(=O)N1CCC2(CC1)CCN(Cc1ccccc1)c1ccccc1O2 [Compound 30]
37 | 0.5 to 10 | – | CC(=O)NCC(=O)N1CCC2(CC1)CCN(Cc1cccc(O)c1)c1ccccc1O2 [Compound 32]
38 | 0.5 to 10 | – | CC(=O)NCC(=O)N1CCC2(CC1)CCN(Cc1ccc(Br)s1)c1ccccc1O2 [Compound 34]
39 | 0.5 to 10 | – | CC(=O)NCC(=O)N1CCC2(CC1)CCN(Cc1ccc(C)cc1)c1ccccc1O2 [Compound 35]
40 | 0.5 to 10 | – | CC(=O)NCC(=O)N1CCC2(CC1)CCN(Cc1cccc(OC(F)(F)F)c1)c1ccccc1O2 [Compound 36]
41 | 0.5 to 10 | – | CC(=O)NCC(=O)N1CCC2(CC1)CCN(Cc1cccc(Br)c1)c1ccccc1O2 [Compound 39]
42 | 0.5 to 10 | – | CC(=O)NCC(=O)N1CCC2(CC1)CCN(Cc1ccc(Br)cc1)c1ccccc1O2 [Compound 40]
43 | 0.5 to 10 | – | CC(=O)NCC(=O)N1CCC2(CC1)CCN(Cc1ccccc1C)c1ccccc1O2 [Compound 41]
44 | 0.05 to 0.499 | – | CC(C)(C)c1ccc(CN2CCC3(CCN(C(=O)CNC(=O)c4cccs4)CC3)Oc3ccccc32)cc1 [Compound 44]
45 | 0.5 to 10 | – | CC(=O)NCC(=O)N1CCC2(CC1)CCN(Cc1cccc(C(F)(F)F)c1)c1cccc(F)c1O2 [Compound 45]
46 | 0.5 to 10 | – | CC(=O)NCC(=O)N1CCC2(CC1)CCN(Cc1ccc(C(C)(C)C)cc1)c1cccc(F)c1O2 [Compound 46]
47 | 0.5 to 10 | – | CCc1ccc(CN2CCC3(CCN(C(=O)CNC(C)=O)CC3)Oc3c(F)cccc32)cc1 [Compound 47]
48 | – | 0.5 to 10 | O=C(NCCC1CC1)c1cnc(N2CCC3(CC2)CCN(Cc2cccc(C(F)(F)F)c2)c2ccccc2O3)s1 [Compound 51]
49 | – | 0.0005 to 0.049 | NC(=O)c1cnc(N2CCC3(CC2)CCN(Cc2cccc(C(F)(F)F)c2)c2ccccc2O3)s1 [Compound 52]
50 | – | 0.0005 to 0.049 | O=C(O)c1cnc(N2CCC3(CC2)CCN(Cc2cccc(C(F)(F)F)c2)c2ccccc2O3)s1 [Compound 54, 2-(5-(3-(trifluoromethyl)benzyl)-4,5-dihydro-3H-spiro[benzo[b][1,4]oxazepine-2,4′-piperidine]-1′-yl)thiazole-5-carboxylic Acid]
